Among the data in PubChem BioAssay (NCI) are TGI values, retold here.

The term TGI denotes the concentration giving total growth inhibition. Higher therefore signals lower sensitivity of the cells.

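Each compound was tested at five concentrations against cells in 96-well plates for 48 hours. At the TGI there is no net growth.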

Among the test systems are DLD-1 colon; DMS 114 small cell lung; XF 498 CNS; DMS 273 small cell lung; M19-MEL melanoma; HOP-18 NSCLC; KM20L2 colon; LXFL 529 NSCLC; RXF-631 renal.
What all share (assay): DTP human tumour cell line panel, 48 h

As to `NC1=NC2=c3ccccc3=C(c3cnccn3)C2(c2cnccn2)c2ccccc21` (configuration not stated), the concentration for total growth inhibition (TGI) in the experiment with DLD-1 colon, in the experiment with DMS 114 small cell lung, in the experiment with XF 498 CNS, with DMS 273 small cell lung, with M19-MEL melanoma and in the experiment with HOP-18 NSCLC was more than 100 µM throughout. For the same molecule, the total growth inhibition concentration (TGI) in the experiment with KM20L2 colon is more than 100 µM.

On to `COc1ccccc1C1C(Cl)C(=O)N1n1cnc2ccccc2c1=O` (configuration not stated), for which the TGI in the experiment with DLD-1 colon, in the experiment on LXFL 529 NSCLC, in the experiment on DMS 114 small cell lung, in the experiment on XF 498 CNS, with DMS 273 small cell lung and in the experiment on M19-MEL melanoma was more than 100 µM in each case. The concentration for total growth inhibition (TGI) in the experiment on HOP-18 NSCLC and in the experiment with KM20L2 colon was more than 100 µM throughout.

For the molecule `COC(=O)C(=O)C(C(=O)C(=O)Nc1cccc(C(C)=O)c1)c1nc2ccc([N+](=O)[O-])cc2[nH]c1=O` (configuration not stated), the TGI with DLD-1 colon, in the experiment with LXFL 529 NSCLC, in the experiment on DMS 114 small cell lung, in the experiment with XF 498 CNS, in the experiment on DMS 273 small cell lung and in the experiment with HOP-18 NSCLC was more than 100 µM each time. The concentration for total growth inhibition (TGI) in the experiment with RXF-631 renal and in the experiment on KM20L2 colon was more than 100 µM each time.

On to `CC(C)(C)OC(=O)N[C@H]1CC(O)c2ccccc2N(CC(=O)O)C1=O` (some centres not stated), for which the TGI with DLD-1 colon, in the experiment with LXFL 529 NSCLC, with DMS 114 small cell lung, with XF 498 CNS, in the experiment with DMS 273 small cell lung and in the experiment on M19-MEL melanoma was more than 100 µM throughout. Moreover, the TGI with HOP-18 NSCLC, in the experiment on RXF-631 renal and in the experiment with KM20L2 colon was more than 100 µM each time.

As to `Cc1[nH]c(=O)nc2c1C(NCCCN(C)C)c1cc(Cl)ccc1N2` (configuration not stated), the TGI in the experiment on DLD-1 colon was 35.3 µM; in the experiment with LXFL 529 NSCLC, 30.6 µM; in the experiment with DMS 114 small cell lung, 28.2 µM; in the experiment with XF 498 CNS, 30.8 µM; in the experiment with DMS 273 small cell lung, 25.3 µM; with M19-MEL melanoma it was 12.9 µM. The TGI in the experiment on KM20L2 colon stood at 24.4 µM.

With `CC1=NN(C(=O)c2ccccc2O)C(=O)/C1=C/c1cccc(O)c1`, the total growth inhibition concentration (TGI) in the experiment with DLD-1 colon, with LXFL 529 NSCLC, with XF 498 CNS, in the experiment with M19-MEL melanoma and in the experiment with KM20L2 colon was more than 100 µM throughout.

For the molecule `Oc1ccc([Te]CCNCC[Te]c2ccc(O)cc2)cc1`, the TGI in the experiment with DLD-1 colon was more than 100 µM; in the experiment with LXFL 529 NSCLC, 32 µM; in the experiment on XF 498 CNS, 39.2 µM; in the experiment with DMS 273 small cell lung, more than 100 µM; in the experiment with M19-MEL melanoma, 50.5 µM; with HOP-18 NSCLC, 66.5 µM. Also, the results for the total growth inhibition concentration (TGI) with RXF-631 renal and in the experiment with KM20L2 colon were 90.2 µM and 55.1 µM, respectively.

For the molecule `COC(=O)CCC(NC(=S)N/N=C/c1ccccn1)C(=O)OC` (configuration not stated), the TGI in the experiment with DLD-1 colon, in the experiment with LXFL 529 NSCLC, in the experiment with DMS 114 small cell lung, in the experiment with XF 498 CNS, in the experiment on M19-MEL melanoma and in the experiment with HOP-18 NSCLC was more than 100 µM each time. In addition, the total growth inhibition concentration (TGI) in the experiment with RXF-631 renal and in the experiment on KM20L2 colon was more than 100 µM in each case.

Regarding `COc1cccc2ccc(C(=O)c3ccccc3)nc12`, the total growth inhibition concentration (TGI) with DLD-1 colon, in the experiment with LXFL 529 NSCLC, in the experiment on XF 498 CNS, in the experiment on DMS 273 small cell lung and with KM20L2 colon was more than 100 µM in each case.

Turning to `O=C(CC(CC(=O)Oc1c(Br)cc(Br)cc1C(=O)O)C(=O)Oc1c(Br)cc(Br)cc1C(=O)O)Oc1c(Br)cc(Br)cc1C(=O)O`, the total growth inhibition concentration (TGI) with DLD-1 colon is more than 100 µM; in the experiment on LXFL 529 NSCLC it was more than 100 µM; in the experiment on DMS 114 small cell lung, more than 100 µM; in the experiment on XF 498 CNS, 38.9 µM; in the experiment with DMS 273 small cell lung it was more than 100 µM; in the experiment on M19-MEL melanoma it was more than 100 µM. Also, in the experiment on KM20L2 colon, the TGI is more than 100 µM.

For `Cc1cc([N+](=O)[O-])ccc1Sc1c2ccccc2nc2cc(Cl)ccc12`, the concentration for total growth inhibition (TGI) in the experiment with DLD-1 colon is more than 100 µM; in the experiment on LXFL 529 NSCLC, more than 100 µM; in the experiment on DMS 114 small cell lung, 52.9 µM; with XF 498 CNS, 91.5 µM; in the experiment with DMS 273 small cell lung, more than 100 µM; with M19-MEL melanoma, more than 100 µM. Besides, the values for the concentration for total growth inhibition (TGI) in the experiment on HOP-18 NSCLC, in the experiment on RXF-631 renal and with KM20L2 colon were more than 100 µM, more than 100 µM and 44.2 µM, respectively.

On to `O=C(C=C1SCCS1)/C=C\c1ccc(Cl)cc1`, for which the TGI in the experiment with DLD-1 colon, in the experiment with LXFL 529 NSCLC, with XF 498 CNS, with DMS 273 small cell lung, with M19-MEL melanoma and in the experiment with RXF-631 renal was more than 100 µM each time.

Turning to `CC(=O)OC1CC2CCN3C(=O)c4cc5c(cc4[C@H](C1OC(C)=O)C23)OCO5` (some centres not stated), the TGI in the experiment with DLD-1 colon, in the experiment on LXFL 529 NSCLC, in the experiment with DMS 273 small cell lung, with M19-MEL melanoma and with KM20L2 colon was more than 100 µM each time.
